Values of other authors, collected in patent US7435726B2, “Compositions and methods for the treatment of cancer” (Celgene Corporation, priority 2001, dated 2008).

Settings: irinotecan monotherapy, expected frequency

SMILES: CCc1c2c(nc3ccc(OC(=O)N4CCC(N5CCCCC5)CC4)cc13)-c1cc3c(c(=O)n1C2)COC(=O)[C@]3(O)CC [Irinotecan, (4S)-4,11-diethyl-4-hydroxy-9-[(4-piperidino-piperidino)carbonyl-oxy]1H-pyranol-[3′,4′:6,7]indolizinol[1,2-b]quinoline-3,14-(4H,12H)dione]
- Abdominal colic/pain, Expected (%) Grade 1-4: 23.7%
- Abdominal colic/pain, Expected (%) Grade 3-4: 2.3%
- Asthenia, Expected (%) Grade 1-4: 75.7%
- Asthenia, Expected (%) Grade 3-4: 12.2%
- Constipation, Expected (%) Grade 1-4: 29.9%
- Constipation, Expected (%) Grade 3-4: 2.0%
- Diarrhea (Late), Expected (%) Grade 1-4: 87.8%
- Diarrhea (Late), Expected (%) Grade 3-4: 30.6%
- Nausea, Expected (%) Grade 1-4: 86.2%
- Vomiting, Expected (%) Grade 1-4: 66.8%
- Vomiting, Expected (%) Grade 3-4: 12.5%
